Earlier results as cited in patent US11793762B2, “Composition and method for reducing joint pain associated with hemarthrosis and hemophilic arthropathy” (UPEXMED CO. LTD., priority 2018, dated 2023).
≈ marks a conversion by molar mass, not a printed value.

solubility in water: 4.3 mg/mL (≈ 11.3 mM)
SMILES: Cc1ccc(-c2cc(C(F)(F)F)nn2-c2ccc(S(N)(=O)=O)cc2)cc1 [Celecoxib]
